Reference: article PMC7026480, “Discovery of Multitarget-Directed Ligands Against Influenza A Virus From Compound Yizhihao Through a Predictive System for Compound-Protein Interactions” (Frontiers in Cellular and Infection Microbiology, 2020)
Like-named read-outs stand apart in the source and are kept apart here.

Assays:
[1] = biological target: neuraminidase (NA) of A/FujianXinluo/SWL2457/2014 (amantadine-resistant H1N1); format: biochemical, influenza A virus; conditions: read-out: IC50, NA inhibition test, A/FujianXinluo/SWL2457/2014
[2] = biological target: neuraminidase (NA) of A/HebeiXinhua/SWL1106/2017 (oseltamivir- and amantadine-resistant H1N1); format: biochemical, influenza A virus; conditions: read-out: IC50, NA inhibition test, A/HebeiXinhua/SWL1106/2017
[3] = tested on: A/HebeiXinhua/SWL1106/2017 (oseltamivir- and amantadine-resistant H1N1); experiment: microbe, parasite or virus in culture; format: cell-based, influenza A virus
[4] = tested on: A/FujianXinluo/SWL2457/2014 (amantadine-resistant H1N1); experiment: microbe, parasite or virus in culture; format: cell-based; conditions: Influenza A virus, H1N1, MDCK
[5] = tested on: wild-type and resistant IAV strains; experiment: microbe, parasite or virus in culture; format: cell-based, influenza A virus; conditions: for IC50: Influenza A virus, read-out: IC50, protective effects for cells infected with the resistant IAV strains (CPE)
[6] = Influenza A virus, H1N1, MDCK, read-out: IC50, CPE reduction, A/HebeiXinhua/SWL1106/2017, Drug administration after virus inoculation
[7] = Influenza A virus, H1N1, MDCK, read-out: IC50, CPE reduction, A/HebeiXinhua/SWL1106/2017, Pre-incubation of virus and drug
[8] = Influenza A virus, H1N1, MDCK, read-out: IC50, CPE reduction, A/HebeiXinhua/SWL1106/2017, Simultaneous action of virus and drug
[9] = Influenza A virus, H1N1, MDCK, read-out: IC50, CPE reduction, A/HebeiXinhua/SWL1106/2017, Virus inoculation after drug administration
[10] = read-out: IC50, dual-oseltamivir and amantadine-resistant H1N1 CPE assay, all modes except for drug administration after viral infection
[11] = read-out: IC50, CPE reduction, A/FujianXinluo/SWL2457/2014, Drug administration after virus inoculation
[12] = read-out: IC50, CPE reduction, A/FujianXinluo/SWL2457/2014, Pre-incubation of virus and drug
[13] = read-out: IC50, CPE reduction, A/FujianXinluo/SWL2457/2014, Simultaneous action of virus and drug
[14] = read-out: IC50, CPE reduction, A/FujianXinluo/SWL2457/2014, Virus inoculation after drug administration

SMILES | IC50 [1] | IC50 [2] | IC50 [3, 6] | IC50 [3, 7] | IC50 [3, 8] | IC50 [3, 9] | IC50 [3, 10] | IC50 [4, 11] | IC50 [4, 12] | IC50 [4, 13] | IC50 [4, 14] | IC50 [5] | inhibition of virus-induced CPE [5] | IC50, dual-oseltamivir and amantadine-resistant H1N1 CPE assay, in the modes tested [3] | IC50 ([3]; Influenza A virus, H1N1, MDCK, read-out: IC50, dual-oseltamivir and amantadine-resistant H1N1 CPE assay, in the modes tested)
C=C(C(=O)O)[C@H]1CC[C@H](C)[C@@H]2CC(=O)C(C)=C2C1 (stereo in doubt) [Rupestonic acid] | > 100 µM | > 100 µM | – | – | – | – | – | – | – | – | – | – | – | – | –
O=c1cc(-c2ccc(O)cc2)oc2cc(O)cc(O)c12 [Apigenin] | – | – | > 100 µM | 31.6 ± 10.3 µM | 35.4 ± 3.98 µM | 39 ± 3.82 µM | < 100 µM | 28.1 ± 2.37 µM | 32.1 ± 4.13 µM | 40.5 ± 4 µM | 36.5 ± 5.79 µM | < 100 µM | – | – | –
O=C(/C=C/c1ccc(O)c(O)c1)O[C@@H]1C[C@](O)(C(=O)O)C[C@@H](O)[C@H]1O [Chlorogenic acid] | > 100 µM | > 100 µM | – | – | – | – | – | – | – | – | – | – | no inhibition of virus-induced CPE | – | –
C=C[C@@H]1CNC(=S)O1 [Epigoitrin] | > 100 µM | > 100 µM | – | – | – | – | – | – | – | – | – | – | – | – | –
O=c1cc(-c2ccc(O)c(O)c2)oc2cc(O)cc(O)c12 [Luteolin] | – | – | > 100 µM | 15.2 ± 4.46 µM | 20.1 ± 10.6 µM | 47.2 ± 7.14 µM | < 100 µM | 31.9 ± 1.99 µM | 1.14 ± 1.02 µM | 24.9 ± 9.62 µM | > 100 µM | < 100 µM | – | – | –
O=c1cc(-c2ccc(O)c(O)c2)oc2c([C@@H]3O[C@H](CO)[C@@H](O)[C@H](O)[C@H]3O)c(O)cc(O)c12 [Orientin] | > 100 µM | > 100 µM | – | – | – | – | – | – | – | – | – | – | no inhibition of virus-induced CPE | – | –
CCOC(=O)C1=C[C@@H](OC(CC)CC)[C@H](NC(C)=O)[C@@H](N)C1 [Oseltamivir, oseltamivir phosphate, reference compound] | – | – | > 100 µM | > 100 µM | > 100 µM | > 100 µM | – | 86.9 ± 7.8 µM | 25.4 ± 8.32 µM | 25.5 ± 8.36 µM | > 100 µM | – | – | no effect | –
O=c1c(O)c(-c2ccc(O)c(O)c2)oc2cc(O)cc(O)c12 [Quercetin] | – | – | > 100 µM | 6.93 ± 4.6 µM | 14.6 ± 1.8 µM | 19.1 ± 1.95 µM | < 100 µM | 20.7 ± 14.7 µM | 7.73 ± 3.04 µM | 37.1 ± 18.2 µM | 86.1 ± 13.8 µM | < 100 µM | – | – | –
NC(=O)c1ncn([C@@H]2O[C@H](CO)[C@@H](O)[C@H]2O)n1 [Ribavirin, ribavirin, reference compound] | – | – | 57.9 ± 10.5 µM | 29.8 ± 6.4 µM | 36.2 ± 13.7 µM | 39.9 ± 9.71 µM | – | 25.9 ± 14.6 µM | 24.6 ± 3.1 µM | 26.2 ± 2.4 µM | 86.7 ± 9.8 µM | – | – | – | 29.8 to 57.9 µM
